For orientation: melting point means the temperature of the solid-liquid transition.

Like-named read-outs stand apart in the source and are kept apart here.

The target in data set [1] is recombinant human NF-kappaB-inducing kinase (NIK/MAP3K14) (Homo sapiens, UniProt Q99558). The data set can be described thus: Inhibition of auto-phosphorylation of recombinant human NIK/MAP3K14 activity (AlphaScreen), Biological Assay A. The format is biochemical. The conditions noted are these: averaged values over all measurements on all batches. On the procedure:
Inhibition of Auto-Phosphorylation of Recombinant Human NF-kappaB-Inducing Kinase (NIK/MAP3K14) Activity (AlphaScreen®)
NIK/MAP3K14 auto-phosphorylation activity was measured using the AlphaScreen® (αscreen) format (Perkin Elmer). All compounds tested were dissolved in dimethyl sulfoxide (DMSO) and further dilutions were made in assay buffer. Final DMSO concentration was 1% (v/v) in assays. Assay buffer was 50 mM Tris pH 7.5 containing 1 mM EGTA (ethylene glycol tetraacetic acid), 1 mM DTT (dithiothreitol), 0.1 mM Na3VO4, 5 mM MgCl2, 0.01% Tween® 20. Assays were carried out in 384 well Alphaplates (Perkin Elmer). Incubations consisted of compound, 25 microM Adenosine-5′-triphosphate (ATP), and 0.2 nM NIK/MAP3K14. Incubations were initiated by addition of GST-tagged NIK/MAP3K14 enzyme, carried out for 1 h at 25° C. and terminated by addition of stop buffer containing anti-phospho-IKK Ser176/180 antibody. Protein A Acceptor and Glutathione-Donor beads were added before reading using an EnVision® Multilabel Plate Reader (Perkin Elmer). Signal obtained in the wells containing blank samples was subtracted from all other wells and IC50's were determined by fitting a sigmoidal curve to % inhibition of control versus Log10 compound concentration.
(In general: Bead proximity is the source of the signal in Alpha formats.)

Data set [2] deals with P-IKKα levels in L363 (NIK translocated multiple myeloma) cells. Nature of the data set: Effect of compounds on P-IKKα levels in L363 cells (Mesoscale sandwich immuno-assay), Biological Assay B. The format is cell-based, human. The conditions noted are these: 2 hr treatment, averaged values, read-out: Inhibition of pIKKα_L-363 (IC50 (nM)). The protocol:
Effect of Compounds on P-IKKα Levels in L363 (NIK Translocated Multiple Myeloma) Cells
All compounds tested were dissolved in DMSO and further dilutions were made in culture medium. Final DMSO concentration was 1% (v/v) in cell assays. The human L363 cells (ATCC) were cultured in RPMI 1640 medium supplemented with GlutaMax and 10% fetal calf serum (PAA). Cells were routinely maintained at densities of 0.2×10^6 cells per ml-1×10^6 cells per ml at 37° C. in a humidified 5% CO2 atmosphere. Cells were passaged twice a week splitting back to obtain the low density. Cells were seeded in 96 well plates (Nunc 167008) at 2×10^6 per ml media in a volume of 75 μl per well plus 25 μl 1 μg/ml recombinant human B-cell activating factor (BAFF/BLyS/TNFSF13B). Seeded cells were incubated at 37° C. in a humidified 5% CO2 atmosphere for 24 hr. Drugs and/or solvents were added (20 μl) to a final volume of 120 μl. Following 2 hr treatment plates were removed from the incubator and cell lysis was achieved by the addition of 30 μl 5× lysis buffer followed by shaking on a plate shaker at 4° C. for 10 min. At the end of this incubation lysed cells were centrifuged at 800×g for 20 min at 4° C. and the lysate was assessed for P-IKKα levels by sandwich immuno-assay carried out in anti-rabbit antibody coated Mesoscale plates. Within an experiment, the results for each treatment were the mean of 2 replicate wells. For initial screening purposes, compounds were tested using an 8 point dilution curve (serial 1:3 dilutions). For each experiment, controls (containing MG132 and BAFF but no test drug) and a blank incubation (containing MG132 and BAFF and 10 μM ADS125117, a test concentration known to give full inhibition) were run in parallel. The blank incubation value was subtracted from all control and sample values. To determine the IC50 a sigmoidal curve was fitted to the plot of % inhibition of control P-IKKα levels versus Log10 compound concentration.
Note: Compounds 237 and 238 were tested at a maximum top concentration of 823 nM.

Data set [3] relates to JJN-3 (NIK translocated) multiple myeloma cells. Nature of the data set: Antiproliferative activity on JJN-3 multiple myeloma cells (CellTiter-Glo, 96 hr), Biological Assay C. The settings on record: Homo sapiens, JJN-3, 96 h, JJN-3 (NIK translocated) cells, averaged values, read-out: JJN-3 Proliferation inhibition (IC50 (nM)). Format: cell-based, human. On the procedure:
(§1) Determination of Antiproliferative Activity on JJN-3 (NIK Translocated) and KMS12-BM (NIK WT) Multiple Myeloma Cells
(§2) All compounds tested were dissolved in DMSO and further dilutions were made in culture medium. Final DMSO concentration was 0.3% (v/v) in cell proliferation assays. Viability was assessed using CellTiter-Glo cell viability assay kit (Promega). The human JJN-3 and KMS12-BM cells (DSMZ) were cultured in RPMI 1640 medium supplemented with 2 mM L-glutamine, and 10% fetal calf serum (PAA). Cells were routinely kept as suspension cells at 37° C. in a humidified 5% CO2 atmosphere. Cells were passaged at a seeding density of 0.2×10^6/ml twice a week. Cells were seeded in black tissue culture treated 96-well plates (Perkin Elmer). Densities used for plating ranged from 15000 (JJN3) to 20000 (KMS12BM) cells per well in a total volume of 135 μl medium. Drugs and/or solvents were added (15 μl) to a final volume of 150 μl. Following 96 hr of treatment, plates were removed from the incubator and allowed to equilibrate to room temperature for approx 10 min. 75 μl CellTiter-Glo reagent was added to each well that was then covered (Perkin Elmer Topseal) and shaken on plate shaker for 10 min. Luminescence was measured on a HTS Topcount (Perkin Elmer).
(§3) Within an experiment, the results for each treatment were the mean of 2 replicate wells. For initial screening purposes, compounds were tested using a 9 point dilution curve (serial 1:3 dilutions). For each experiment, controls (containing no drug) and a blank incubation (containing cells read at the time of compound addition) were run in parallel. The blank value was subtracted from all control and sample values. For each sample, the mean value for cell growth (in relative light units) was expressed as a percentage of the mean value for cell growth of the control.
(Cellular ATP, detected with luciferase, serves as a proxy for viable cell number.)

Data set [4] has as its system KMS12-BM (NIK WT) multiple myeloma cells. Nature of the data set: Antiproliferative activity on KMS12-BM multiple myeloma cells (CellTiter-Glo, 96 hr), Biological Assay C. Format: cell-based, human. The conditions noted are these: Homo sapiens, KMS-12-BM, 96 h, averaged values, read-out: KMS-12 Proliferation inhibition (IC50 (nM)). The protocol: as §1, §2, §3

Sequence of recombinant human NF-kappaB-inducing kinase (NIK/MAP3K14) (Q99558 whole entry): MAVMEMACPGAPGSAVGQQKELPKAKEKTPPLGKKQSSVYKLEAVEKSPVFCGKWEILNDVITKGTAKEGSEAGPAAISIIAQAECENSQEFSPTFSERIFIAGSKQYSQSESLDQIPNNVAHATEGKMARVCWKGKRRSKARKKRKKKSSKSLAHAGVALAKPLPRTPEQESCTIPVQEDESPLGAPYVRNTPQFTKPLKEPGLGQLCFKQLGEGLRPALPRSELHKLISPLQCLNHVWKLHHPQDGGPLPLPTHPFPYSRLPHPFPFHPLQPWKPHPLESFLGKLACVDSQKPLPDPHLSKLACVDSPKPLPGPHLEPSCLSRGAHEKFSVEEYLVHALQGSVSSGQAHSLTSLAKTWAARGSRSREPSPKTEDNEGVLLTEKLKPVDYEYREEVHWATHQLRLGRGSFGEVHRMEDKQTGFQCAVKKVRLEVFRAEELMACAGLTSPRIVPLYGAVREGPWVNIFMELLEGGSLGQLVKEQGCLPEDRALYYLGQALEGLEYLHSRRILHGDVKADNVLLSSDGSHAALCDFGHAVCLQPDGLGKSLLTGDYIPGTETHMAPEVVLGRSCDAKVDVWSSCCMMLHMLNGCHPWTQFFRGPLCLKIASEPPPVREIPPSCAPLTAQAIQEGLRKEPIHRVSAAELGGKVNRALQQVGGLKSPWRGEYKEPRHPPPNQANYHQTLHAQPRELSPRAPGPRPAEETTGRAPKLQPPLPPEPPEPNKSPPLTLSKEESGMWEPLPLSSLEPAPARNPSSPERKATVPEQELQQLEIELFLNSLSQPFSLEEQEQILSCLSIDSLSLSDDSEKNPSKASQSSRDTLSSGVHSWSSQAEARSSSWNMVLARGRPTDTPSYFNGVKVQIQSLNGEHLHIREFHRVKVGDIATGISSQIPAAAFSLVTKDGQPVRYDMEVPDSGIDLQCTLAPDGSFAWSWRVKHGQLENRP

With `C[C@]1(CO)CNc2c(C#N)cc(-c3ccnc(Nc4ccccc4C4CCCN4)n3)cc21` (single isomer, unassigned) [Compound 237], the IC50 in data set [1] was 214 nM; in data set [2] (Homo sapiens, L-363, 2 h), greater than 832 nM.
As for `C[C@]1(CO)CNc2c(C#N)cc(-c3ccnc(Nc4ccccc4C4CCCN4)n3)cc21` (single isomer, unassigned) [Compound 238], the results for the IC50 in data set [1] and in data set [2] were 955 nM and greater than 832 nM, respectively.
Turning to `COCCOc1cc(F)ccc1Nc1nccc(-c2cc(C#N)c3c(c2)[C@@](C)(CO)CN3)n1` [Compound 69], the melting point is 157 °C. For the same compound, the IC50 in data set [3] turned out to be 1020 nM. Moreover, the IC50 in data set [1] was determined as 4.9 nM. The IC50 in data set [4] was greater than 10000 nM.
The matching figures for `C[C@]1(CO)CNc2c(C#N)cc(-c3ccnc(Nc4cc(C#N)ccc4C(F)(F)F)n3)cc21` [Compound 70]: 237 °C, 2190 nM, 3.9 nM and greater than 10000 nM.
The matching figures for `C[C@]1(CO)CNc2c(C#N)cc(-c3ccnc(Nc4cc(C#N)ccc4C4CC4)n3)cc21` [Compound 71]: 210 °C, 148 nM, 7.2 nM and greater than 10000 nM.
In the same order, the values of `COCCCc1ccc(Cl)cc1Nc1nccc(-c2cc(C#N)c3c(c2)[C@@](C)(CO)CN3)n1` [Compound 72] are 189 °C, 123 nM, 11 nM and greater than 10000 nM.
Compound `Cc1cc(C2CCOCC2)c(C#N)cc1Nc1nccc(-c2cc(C#N)c3c(c2)[C@@](C)(CO)CN3)n1` [Compound 75] displayed a melting point of 228 °C. Also, the IC50 in data set [3] is 105 nM. Also, the IC50 in data set [1] came out at 3.6 nM. For the same compound, the IC50 in data set [4] was roughly 3310 nM.
The matching figures for `CC1(C)CNc2c(C#N)cc(-c3ccnc(Nc4cc(Cl)ccc4OC4CCN(C5CC5)CC4)n3)cc21` [Compound 99]: 120 °C, 380 nM, 219 nM and 8320 nM.
In the same order, the values of `COCCOc1ccc(Cl)cc1Nc1nccc(-c2cc(C#N)c3c(c2)C(C)(C)CN3)n1` [Compound 100] are 171 °C, 1410 nM, 91.2 nM and greater than 10000 nM.
In the same order, the values of `CN1CCCC(Oc2ccc(Cl)cc2Nc2nccc(-c3cc(C#N)c4c(c3)C(C)(C)CN4)n2)C1` (stereo not drawn) [Compound 101] are 104 °C, 447 nM, 49 nM and 1350 nM.
Consider `CC(C)Oc1ccc(Cl)cc1Nc1nccc(-c2cc(C#N)c3c(c2)C(C)(C)CN3)n1` [Compound 102], for which the melting point amounted to 112 °C. The IC50 in data set [3] turned out to be 3550 nM. Also, the IC50 in data set [1] stood at 403 nM. The IC50 in data set [4] is greater than 10000 nM.
The matching figures for `CC1(C)CNc2c(C#N)cc(-c3ccnc(Nc4cc(Cl)ccc4OC4CCOCC4)n3)cc21` [Compound 103]: 126 °C, 3720 nM, 105 nM and greater than 10000 nM.
The matching figures for `COc1cc(Nc2nccc(-c3cc(C#N)c4c(c3)C(C)(C)CN4)n2)c(F)c(OC)c1` [Compound 104]: 176 °C, 2140 nM, 12 nM and greater than 10000 nM.
In the same order, the values of `CC1(C)CNc2c(C#N)cc(-c3ccnc(Nc4cc(Cl)ccc4OCCO)n3)cc21` [Compound 107] are 176 °C, 1020 nM, 41.7 nM and greater than 10000 nM.
In turn, `CC1(C)CNc2c(C#N)cc(-c3ccnc(Nc4ccccc4C(=O)N4CCC(O)C4)n3)cc21` (stereo not drawn) [Compound 111] came in with a melting point of 219 °C. The IC50 in data set [3] is 3470 nM. Also, in data set [1], the IC50 came out at 3550 nM. Besides, the IC50 in data set [4] was greater than 10000 nM.
The matching figures for `COc1cc(C(=O)NCC(C)O)c(Cl)cc1Nc1nccc(-c2cc(C#N)c3c(c2)C(C)(C)CN3)n1` (stereo not drawn) [Compound 112]: greater than 260 °C, 20 nM, 4.3 nM and greater than 10000 nM.
The matching figures for `COc1cc(C(=O)N2CC3(CCCNC3)C2)c(Cl)cc1Nc1nccc(-c2cc(C#N)c3c(c2)C(C)(C)CN3)n1` [Compound 113]: 178 °C, 28 nM, 2.6 nM and roughly 407 nM.
The matching figures for `COc1cc(C(=O)N2CC3(CCNCC3)C2)c(Cl)cc1Nc1nccc(-c2cc(C#N)c3c(c2)C(C)(C)CN3)n1` [Compound 114]: 206 °C, 19 nM, 2.2 nM and 490 nM.
Compound `COc1cc(C(=O)N2CCNC(C#N)C2)c(Cl)cc1Nc1nccc(-c2cc(C#N)c3c(c2)C(C)(C)CN3)n1` (stereo not drawn) [Compound 121] yielded a melting point of 193 °C. Besides, the IC50 in data set [3] is 12 nM. Also, the IC50 in data set [1] turned out to be 8.5 nM. The IC50 in data set [4] was found to be 120 nM.
In the same order, the values of `COc1cc(C(=O)N2CC3(CC(O)C3)C2)c(Cl)cc1Nc1nccc(-c2cc(C#N)c3c(c2)C(C)(C)CN3)n1` [Compound 123] are 287 °C, 14 nM, 8.5 nM and 1050 nM.
In the same order, the values of `Cc1cc(C(=O)NCC2COC2)c(F)cc1Nc1nccc(-c2cc(C#N)c3c(c2)[C@@](C)(CO)CN3)n1` [Compound 187] are 240 °C, 39 nM, 3.2 nM and 1100 nM.
The matching figures for `Cc1c(Nc2nccc(-c3cc(C#N)c4c(c3)[C@@](C)(CO)CN4)n2)cccc1C(=O)N1CCN(C2CC2)CC1` [Compound 206]: 238 °C, 71 nM, 5.3 nM and roughly 7240 nM.
